Reference: patent publication US20150265682A1, “THERAPEUTIC METHODS AND COMPOSITIONS FOR TREATING DIABETES” (Orient Europharma Co., Ltd., priority 2014, published 2015)

Assays:
[1] = test system: soleus muscle of normal, type 1 DM and type 2 DM mice; experiment: Glycogen content in soleus muscle in vivo (borapetoside A); set-up: species or system ICR mice; settings: borapetoside A 10 mgkg^−1 i.p. 60 minutes, insulin 0.5 IUkg^−1
Procedure: (§1) After three days of acclimatization, the mice had free access to a standard rodent chow (normal mice), a standard rodent chow after single […] streptozotocin (STZ) intraperitoneal injection (T1DM mice), and a fat-rich chow diet and fructose-sweetened water (T2DM mice) for 4 weeks. The induction of Type 1 DM was assessed and confirmed when the mice had plasma glucose levels ≧350 mgdL^−1, accompanied with polyuria, hyperphagia and decreased body weight. The induction Type 2 DM in the mice was assessed by measuring fasting plasma glucose levels and confirmed when plasma glucose level was ≧150 mgdL^−1 after the 4-week induction. The animals were assigned randomly into three groups, with seven animals in each group. In group I, the mice were treated with vehicle, 2% DMSO in normal saline, as the negative control. In group II, the mice were intraperitoneally treated with borapetoside A (0.1-10 mgkg^−1). In group Ill, the positive control, the mice received intraperitoneally metformin (300 mgkg^−1; Sigma Chemical Co., St. Louis, Mo., U.S.A.) or insulin (0.5 IUkg^−1; Insulin Actrapid® HM; Novo Nordisk, Denmark). In the acute study, mice under anesthesia received a single intraperitoneal administration of borapetoside A, negative control, or positive control. In the subacute study, mice received intraperitoneal administrations of borapetoside A, vehicle, or insulin twice a day for seven days.
(§2) The mice were injected with borapetoside A (10 mgkg^−1, interperitoneal) for 60 minutes or insulin (0.5 IUkg^−1, interperitoneal) for 30 minutes. After the treatment, the anesthetic mice were sacrificed by cervical dislocation to collect the soleus muscle and liver. About 40 mg of each sample was dissolved in 1 mol/L KOH at 75° C. for 30 min. The dissolved homogenate was neutralized by glacial acetic acid and then incubated overnight in acetate buffer (0.3 mol/L sodium acetate, pH 4.8) containing amyloglucosidase (Sigma, St. Louis, Mo.). The mixture was then neutralized with 1 mol/L NaOH to stop the reaction. The glycogen contents in the tissue samples were determined as μg of glucose per mg of tissue (wet weight).

[2] = test system: liver of normal, type 1 DM and type 2 DM mice; experiment: Glycogen content in liver in vivo (borapetoside A); set-up: species or system ICR mice; settings: borapetoside A 10 mgkg^−1 i.p. 60 minutes, insulin 0.5 IUkg^−1
Procedure: as §1, §2

[3] = test system: normal, T1DM and T2DM mice; experiment: Insulin tolerance test (ITT): activity of lowering plasma glucose (AL); type: in vivo, ICR mice; settings: 30 min after insulin
Procedure: T1DM mice were induced by a known method. In brief, an intraperitoneal injection of streptozotocin (STZ; Sigma Chemical Co.; St. Louis, Mo.) at 150 mg/kg was performed in mice that were fasted for 48 h. The induction of T1DM was assessed and confirmed when the mice had plasma glucose levels ≧350 mg/dL, accompanied with polyuria, hyperphagia and decreased body weight. The control mice group received an injection of vehicle and then carried out for 4 weeks. T2DM mice were induced by maintaining on a fat-rich chow diet and fructose-sweetened water for 4 weeks from the age of 4-5 weeks according to previous methods. The induction T2DM mice were assessed by measuring fasting plasma glucose levels and confirmed when plasma glucose level was ≧150 mg/dL after a 4-week induction.
Blood samples were collected from the orbital vascular plexus of mice under anesthesia with sodium pentobarbital (80 mg/kg, intraperitoneal, Sigma Chemical Co., St. Louis, Mo., USA). Blood samples were then centrifuged at 13000 rpm for 5 min, and the plasma was kept on ice prior to the assay. The plasma glucose concentration was measured using commercial kits following manufacturer's instructions (BioSystems S. A., Barcelona, Spain).
To perform OGTT, mice were fasted overnight, divided into 2 groups and then administered a vehicle control and 5 mg/kg borapetoside C. This was followed by administration of a glucose solution at 2 g/kg via tube feeding. Blood samples were withdrawn from the orbital vascular plexus at intervals of 30, 60, 120, and 150 min after glucose administration. For the ITT, mice were fasted for 3 h. Human insulin (Insulin Actrapid) HM; Novo Nordisk, Denmark) was injected intraperitoneally after an intraperitoneal administration of 0.1 mg/kg borapetoside C for 30 min. Blood samples were collected from the orbital vascular plexus at the timed intervals mentioned above.
Therefore, the effects of borapetoside C on insulin tolerance were tested in this study. The non-diabetic, T1DM, and T2DM mice were injected with insulin at various doses (i.e., 0.1 IU/kg, 0.5 IU/kg, and 1.0 IU/kg) in conjunction with either borapetoside C (0.1 mg/kg) or a vehicle control (Table 3), and their plasma glucose levels were examined before and 30 min after insulin injection. The activity of lowering plasma glucose levels (AL) was calculated by the formula: (Gi−Gt)/Gi×100%, where the Gi was the initial glucose concentration and G1 was the plasma glucose concentration after 30-min treatment with insulin. Insulin reduced the plasma glucose levels in both normal and diabetic mice, and the glucose levels were further decreased when insulin was co-administered with borapetoside C to the mice.

[4] = Normal mice, insulin 0.1 IU/kg with borapetoside C 0.1 mg/kg or vehicle
[5] = Normal mice, insulin 0.5 IU/kg with borapetoside C 0.1 mg/kg or vehicle
[6] = Normal mice, insulin 1.0 IU/kg with borapetoside C 0.1 mg/kg or vehicle
[7] = T1DM mice, insulin 0.1 IU/kg with borapetoside C 0.1 mg/kg or vehicle
[8] = T1DM mice, insulin 0.5 IU/kg with borapetoside C 0.1 mg/kg or vehicle
[9] = T1DM mice, insulin 1.0 IU/kg with borapetoside C 0.1 mg/kg or vehicle
[10] = T2DM mice, insulin 0.1 IU/kg with borapetoside C 0.1 mg/kg or vehicle
[11] = T2DM mice, insulin 0.5 IU/kg with borapetoside C 0.1 mg/kg or vehicle
[12] = T2DM mice, insulin 1.0 IU/kg with borapetoside C 0.1 mg/kg or vehicle

Row | Compound | glycogen content in soleus muscle ([1]; mice with type 1 DM) | glycogen content in soleus muscle ([1]; mice with type 2 DM) | glycogen content in soleus muscle ([1]; normal mice) | glycogen content in liver ([2]; mice with type 1 DM) | glycogen content in liver ([2]; mice with type 2 DM) | glycogen content in liver ([2]; normal mice) | AL (activity of lowering plasma glucose levels) [3, 4] [%] | AL (activity of lowering plasma glucose levels) [3, 5] [%] | AL (activity of lowering plasma glucose levels) [3, 6] [%] | AL (activity of lowering plasma glucose levels) [3, 7] [%] | AL (activity of lowering plasma glucose levels) [3, 8] [%] | AL (activity of lowering plasma glucose levels) [3, 9] [%] | AL (activity of lowering plasma glucose levels) [3, 10] [%] | AL (activity of lowering plasma glucose levels) [3, 11] [%] | AL (activity of lowering plasma glucose levels) [3, 12] [%]
1 | C[C@@]12C[C@@H](c3ccoc3)OC(=O)[C@@H]1C[C@@H]1OC(=O)[C@@]3(O)[C@@H](O[C@@H]4O[C@H](CO)[C@@H](O)[C@H](O)[C@H]4O)CC[C@@H]2[C@@]13C [Borapetoside A, borapetoside A] | 155.6±8.6 % of vehicle control | 171.8±12.0 % of vehicle control | 116.5±4.2 % of vehicle control | 196.9±15.6 % of vehicle control | 146.1±12.0 % of vehicle control | 257.8±15.8 % of vehicle control | – | – | – | – | – | – | – | – | –
2 | COC(=O)C1=CCC[C@H]2[C@]3(C)C[C@@H](c4ccoc4)OC(=O)[C@@H]3C[C@@H](O[C@@H]3O[C@H](CO)[C@@H](O)[C@H](O)[C@H]3O)[C@@]12C [Borapetoside C, borapetoside C] | – | – | – | – | – | – | 17.2 ± 1.2 | 45.7 ± 3.7 | 64.7 ± 1.8 | 10.5 ± 1.4 | 18.9 ± 2.1 | 32.2 ± 2.1 | 24.0 ± 1.1 | 31.6 ± 1.6 | 42.5 ± 0.8
3 | Insulin: human insulin, Insulin Actrapid HM, a short-acting insulin provided by Novo Nordisk [reference compound] | – | failed to enhance | – | – | failed to enhance | – | 14.6 ± 0.8 | 37.5 ± 1.1 | 56.8 ± 1.9 | 8.7 ± 1.6 | 11.5 ± 0.6 | 24.0 ± 1.3 | 19.5 ± 1.5 | 27.5 ± 2.6 | 32.0 ± 1.1
